According to ChEMBL document CHEMBL1158794, “A cytotoxic xanthone dimer from the entomopathogenic fungus Aschersonia sp. BCC 8401” (J Nat Prod, 2005):
Values after ≈ are worked out from the molar mass of the structure shown.

Key:
[1] = test system: Plasmodium falciparum; test: Antiplasmodial activity against multidrug-resistant Plasmodium falciparum K1 by [3H]hypoxanthine uptake; assay type: functional, organism-based
[2] = test system: Vero; test: Cytotoxicity against african green monkey Vero cells by SRB assay; assay type: cell-based; conditions: Chlorocebus sabaeus
[3] = Cytotoxicity against human BC cells by SRB assay; assay type: functional, cell-based
[4] = test system: KB; test: Cytotoxicity against human KB cells by SRB assay; assay type: functional, cell-based
[5] = test system: NCI-H187; test: Cytotoxicity against human NCI-H187 cells by SRB assay; assay type: functional, cell-based

Structure (SMILES): CO[C@H]1CC=C2C(=O)c3c(cc(C)c(-c4c(C)cc5c(c4O)C(=O)C4=CC[C@H](OC)[C@@H](O)[C@]4(C)O5)c3O)O[C@@]2(C)[C@@H]1O [ASCHERXANTHONE A]
- IC50 [1]: 0.2 µg/mL (≈ 0.346 µM)
- IC50 [2]: 0.8 µg/mL (≈ 1.38 µM)
- IC50 [3]: 1.7 µg/mL (≈ 2.94 µM)
- IC50 [4]: 1.7 µg/mL (≈ 2.94 µM)
- IC50 [5]: 0.16 µg/mL (≈ 0.277 µM)
